{"source": "patent US10391268B2", "about": "“Device and method of delivering particles in the upper respiratory tract” (SERVICES MEDICAUX ARNOLD ET JOAN ZIDULKA INC., priority 2016, dated 2019)", "tested_on": "patient suffering from post-nasal drip and upper laryngeal syndrome", "assay": "two rounds of testing of orally administered, nasally exhaled aerosolized ciclesonide in a patient", "format": "in vivo", "details": "one patient; two rounds with an interval of two weeks; two sprays of 200 micrograms ciclesonide into FIG. 3 device, four to six oral inhalations each followed by nasal exhalation, morning and evening for two weeks", "source_text": "The Applicant has performed two rounds of testing on a patient suffering from post-nasal drip and upper laryngeal syndrome with an interval of two weeks between the rounds, each round consisting in administering a therapeutically effective dose of ciclesonide using the method of the present invention. […] In some embodiments, the therapeutically effective dose of ciclesonide for the treatment of upper airway cough syndrome is from 25 to 800 micrograms. Use of ciclesonide for the treatment of upper airway cough syndrome provides the advantage of avoiding fungal infections typically associated with administration of corticosteroid in the posterior nasal region, pharynx and the larynx.\nIn conducting the rounds of testing, the Applicant used the embodiment of the oral delivery device of the present invention shown in FIG. 3. […] It should be noted that in some embodiments, the effective volume is greater or smaller than 375 milliliters. In operation, the patient released two sprays of aerosolized ciclesonide into the oral delivery device, each one of the sprays containing 200 micrograms of ciclesonide, and performed four to six oral inhalations, each one of the inhalations being followed by a nasal exhalation into the ambient atmosphere. Each one of the inhalations drew ambient air into the oral delivery device to sweep in an additional amount of aerosolized ciclesonide. […]"}
{"smiles": "CC(C)C(=O)OCC(=O)[C@@]12O[C@H](C3CCCCC3)O[C@@H]1C[C@H]1[C@@H]3CCC4=CC(=O)C=C[C@]4(C)[C@H]3[C@@H](O)C[C@@]12C", "note": "[ciclesonide]", "values": [{"measurement": "patient-reported symptoms typical of upper airway cough syndrome following each round", "result": "significant alleviation of the symptoms"}]}
